Experimental data: US11046640B2, “Water-soluble L-DOPA esters” (BERLIREM GMBH, priority 2015, dated 2021)
Converted amounts (≈) assume the structure as drawn. Each block holds one compound with its values, some of them ahead of it.

How the values were obtained:
[1] = biological target: T1, carboxylesterase 1 (isoform c, human, recombinant) (Homo sapiens, UniProt P23141); assay: Enzymatic ester cleavage using isolated carboxylesterase; format: in vitro ADME
T1 construct: purchased Sigma-Aldrich, Munich, Germany
T1 sequence (P23141 18-566 isoform P23141-3 limits assumed): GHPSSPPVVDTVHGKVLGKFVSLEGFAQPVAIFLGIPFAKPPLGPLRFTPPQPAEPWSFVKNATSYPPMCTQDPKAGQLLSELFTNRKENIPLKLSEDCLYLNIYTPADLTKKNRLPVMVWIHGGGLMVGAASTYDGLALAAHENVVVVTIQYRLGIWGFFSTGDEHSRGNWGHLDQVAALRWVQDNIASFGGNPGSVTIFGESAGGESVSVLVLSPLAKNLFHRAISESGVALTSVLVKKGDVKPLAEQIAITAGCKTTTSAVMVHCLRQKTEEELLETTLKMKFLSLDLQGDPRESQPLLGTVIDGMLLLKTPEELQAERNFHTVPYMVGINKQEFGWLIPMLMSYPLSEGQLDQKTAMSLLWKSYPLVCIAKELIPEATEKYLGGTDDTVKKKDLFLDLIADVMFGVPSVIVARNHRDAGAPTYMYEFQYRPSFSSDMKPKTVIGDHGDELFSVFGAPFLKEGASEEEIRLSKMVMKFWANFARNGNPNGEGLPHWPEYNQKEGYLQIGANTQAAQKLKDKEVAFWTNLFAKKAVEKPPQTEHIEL
Protocol: Enzymatic Ester Cleavage Using Isolated Carboxylesterase
Afterwards 5 μl carboxylestaerase 1 (isoform c, human, recombinant (Sigma-Aldrich, Munich, Germany)) with activity 1000 units/mg protein (concentration: 5 mg/ml) was added. The mixture was incubated for 60 and 180 min at 37° C.

Solubility in water = format: physicochemical; settings: for solubility in water: hydrochloride salt; for Aqueous solubility: water
Protocol: 40 mg of lyophilized L-DOPA glycerol ester hydrochloride was dissolved in 20 μl of water resulting in a viscous liquid. The aqueous solubility of L-DOPA glycerol ester hydrochloride is ≥2 g/ml.

[2] = Hydrolytic stability at selected pH values (TLC); format: physicochemical
Protocol: Each 20 mg of lyophilized L-DOPA glycerol ester hydrochloride as well as L-DOPA ethyl ester hydrochloride were dissolved in 250 μl of buffer solution which was de-gassed for 5 min under argon.
The ester solutions were stored at 32° C.

[3] = cited from earlier work

Time to complete hydrolysis (min) (with carboxylesterase) [1]: 60 min | solubility in water (Solubility in water): up to 400 mg/ml | Aqueous solubility (Solubility in water): 400 mg/mL | Stability (days at pH 7.4, Soerensen buffer) [2]: 2 days
Compound: CCOC(=O)[C@@H](N)Cc1ccc(O)c(O)c1.Cl [Ethyl-Dopa•HCl, L-DOPA ethyl ester hydrochloride]

Time to complete hydrolysis (min) (with carboxylesterase) [1]: >60 min | ester remaining ([1]; carboxylesterase 1, 37° C., after 180 min): only traces | Aqueous solubility (Solubility in water; hydrochloride): 2000 mg/mL | Aqueous solubility (Solubility in water; listed as L-DOPA glycerol ester hydrochloride, hydrochloride): ≥ 2000 mg/mL | hydrolytic stability ([2]; all pH values (1, 4.5, 7.4, 8.5), 32° C., over 14 days): stable | Stability (days at pH 7.4, Soerensen buffer) [2]: 14 days
Compound: Cl.N[C@@H](Cc1ccc(O)c(O)c1)C(=O)OCC(O)CO (stereo partly drawn) [Gly-Dopa•HCl, L-DOPA glycerol ester hydrochloride]

ester cleavage ([1]; carboxylesterase 1, 37° C., after 60 min): complete | solubility in water (Solubility in water): 400 mg/mL | time within which the ester is cleaved ([2]; pH 7.4, 32° C.): ≤ 2 days | time within which the ester is cleaved ([2]; pH 8.5, 32° C.): ≤ 2 days | hydrolytic stability ([2]; pH=1, 32° C., over measured time period): stable | time within which the ester is cleaved ([2]; pH=4.5, 32° C.): ≤ 14 days
Compound: CCOC(=O)[C@@H](N)Cc1ccc(O)c(O)c1 [L-DOPA ethyl ester]
solubility ([3]; at pH 8.2, free base, US 6,696,600 B2): 52 mg/mL (≈ 231 mM)

Compound: N[C@@H](Cc1ccc(O)c(O)c1)C(=O)O [L-DOPA, L-3,4-Dihydroxyphenylalanin]
water solubility ([3]; reported, Fernandez & Odin 2011): 20 mg/mL (≈ 101 mM)
